From PubChem BioAssay (NCI)
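Growth conditions: 96-well plates. Treatment: test compound, 48 hours, 5 concentrations. Analysis: linear interpolation between bracketing concentrations; unreached endpoints set to highest concentration. GI50: concentration for 50% inhibition of growth. Definition used: TGI = concentration required for complete inhibition of growth.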

How the values were obtained:
Test in all cases: DTP human tumour cell line panel, 48 h
OVCAR-5 ovarian = tested on: OVCAR-5 ovarian
OVCAR-8 ovarian = tested on: OVCAR-8 ovarian
EKVX NSCLC = tested on: EKVX NSCLC
NCI/ADR-RES ovarian = tested on: NCI/ADR-RES ovarian
HCT-15 colon = tested on: HCT-15 colon
UACC-62 melanoma = tested on: UACC-62 melanoma
MDA-N = tested on: MDA-N
SF-295 CNS = tested on: SF-295 CNS
SW-620 colon = tested on: SW-620 colon
HCT-116 colon = tested on: HCT-116 colon
SR leukemia = tested on: SR leukemia

C[C@@H]1OC(=O)C[C@H]2CC(=O)N(CCC3CN(C(=O)OCc4ccccc4)c4ccccc43)C[C@@H]21 (stereo partly drawn)
TGI (OVCAR-5 ovarian): > 100 µM
TGI (OVCAR-8 ovarian): > 100 µM
TGI (EKVX NSCLC): > 100 µM
TGI (NCI/ADR-RES ovarian): > 100 µM
TGI (HCT-15 colon): > 100 µM
TGI (UACC-62 melanoma): > 100 µM
TGI (MDA-N): > 100 µM
TGI (SF-295 CNS): > 100 µM
TGI (SW-620 colon): > 100 µM
TGI (HCT-116 colon): > 100 µM

Nc1n(CC(=O)c2ccccc2)nc2sc(-c3ccccc3)n[n+]12
TGI (OVCAR-5 ovarian): > 100 µM
TGI (OVCAR-8 ovarian): 38.8 µM
TGI (EKVX NSCLC): > 100 µM
TGI (NCI/ADR-RES ovarian): > 100 µM
TGI (HCT-15 colon): > 100 µM
TGI (UACC-62 melanoma): 25.1 µM
TGI (SF-295 CNS): 55 µM
TGI (SW-620 colon): 36.6 µM

CC(=O)NC1C(OCc2ccccc2)OC(CO)C(O)C1OCC(=O)N1CCCC1C(=O)N[C@@H](CCC(=O)NCCCCNc1c2ccccc2nc2cccc([N+](=O)[O-])c12)C(N)=O (stereo partly drawn)
TGI (SR leukemia): > 100 µM
TGI (OVCAR-5 ovarian): 88.5 µM
TGI (OVCAR-8 ovarian): > 100 µM
TGI (EKVX NSCLC): > 100 µM
TGI (NCI/ADR-RES ovarian): > 100 µM
TGI (HCT-15 colon): > 100 µM
TGI (MDA-N): 30.6 µM
TGI (SF-295 CNS): > 100 µM
TGI (SW-620 colon): 65.7 µM
TGI (HCT-116 colon): 64.6 µM

CN1CCC(CNc2cc(C3(C(=O)Nc4cc(C(=O)Nc5ccc(Cl)c(C(F)(F)F)c5)ccc4F)CC3)ncn2)CC1
GI50 (OVCAR-5 ovarian): 3.28 µM
TGI (OVCAR-5 ovarian): 11.4 µM
GI50 (OVCAR-8 ovarian): 3.72 µM
TGI (OVCAR-8 ovarian): 14.9 µM
GI50 (EKVX NSCLC): 2.46 µM
TGI (EKVX NSCLC): 6.62 µM
GI50 (NCI/ADR-RES ovarian): 5.46 µM
TGI (NCI/ADR-RES ovarian): 36.6 µM
GI50 (HCT-15 colon): 1.6 µM
TGI (HCT-15 colon): 4.19 µM
GI50 (SW-620 colon): 2.54 µM
TGI (SW-620 colon): 5.32 µM

Cn1c(=O)c2c(nc3n(CC(O)CCl)c(=O)ccn23)n(C)c1=O (stereo not drawn)
TGI (OVCAR-5 ovarian): > 100 µM
TGI (OVCAR-8 ovarian): > 100 µM
TGI (EKVX NSCLC): > 100 µM
TGI (NCI/ADR-RES ovarian): > 100 µM
TGI (HCT-15 colon): > 100 µM
TGI (UACC-62 melanoma): > 100 µM
TGI (MDA-N): > 100 µM
TGI (SF-295 CNS): > 100 µM
TGI (SW-620 colon): > 100 µM
TGI (HCT-116 colon): > 100 µM

C=CCC1(C#N)C(=S)NC2=C(C(=O)CC(C)(C)C2)C1c1ccccc1 (stereo not drawn)
TGI (SR leukemia): > 100 µM
TGI (OVCAR-5 ovarian): > 100 µM
TGI (OVCAR-8 ovarian): 53.1 µM
TGI (EKVX NSCLC): 60.5 µM
TGI (NCI/ADR-RES ovarian): > 100 µM
TGI (HCT-15 colon): > 100 µM
TGI (MDA-N): > 100 µM
TGI (SW-620 colon): > 100 µM
TGI (HCT-116 colon): > 100 µM

CNC(C)(C)Cc1ccc(Cl)cc1
TGI (OVCAR-8 ovarian): > 100 µM
TGI (EKVX NSCLC): > 100 µM
TGI (UACC-62 melanoma): > 100 µM
TGI (SF-295 CNS): > 100 µM
TGI (SW-620 colon): > 100 µM
TGI (HCT-116 colon): > 100 µM

CC(=O)O[C@H]1CC(C)(C)C(=C=C/C(C)=C/C=C/C=C/C=C(C)/C=C2C=C(/C=C/[C@@]34O[C@]3(C)C[C@@H](O)CC4(C)C)C(=O)O/2)[C@](C)(O)C1
TGI (SR leukemia): 74.8 µM
TGI (OVCAR-5 ovarian): 68.7 µM
TGI (OVCAR-8 ovarian): 25.2 µM
TGI (NCI/ADR-RES ovarian): 34.5 µM
TGI (HCT-15 colon): 35 µM
TGI (UACC-62 melanoma): 24 µM
TGI (MDA-N): 49.5 µM
TGI (SF-295 CNS): 34.3 µM
TGI (SW-620 colon): > 100 µM
TGI (HCT-116 colon): 50.5 µM

O=C(O)CC(Cc1ccccc1Cl)C(=O)O (stereo not drawn)
TGI (OVCAR-5 ovarian): > 100 µM
TGI (OVCAR-8 ovarian): > 100 µM
TGI (EKVX NSCLC): > 100 µM
TGI (NCI/ADR-RES ovarian): > 100 µM
TGI (HCT-15 colon): > 100 µM
TGI (UACC-62 melanoma): > 100 µM
TGI (MDA-N): > 100 µM
TGI (SF-295 CNS): > 100 µM
TGI (SW-620 colon): > 100 µM
TGI (HCT-116 colon): > 100 µM

O=C(Nc1ccc(N2C(=O)CSC2c2ccccc2O)cc1)c1ccc(N2C(=O)CSC2c2ccccc2O)cc1 (stereo not drawn)
TGI (OVCAR-5 ovarian): > 100 µM
TGI (OVCAR-8 ovarian): > 100 µM
TGI (EKVX NSCLC): > 100 µM
TGI (NCI/ADR-RES ovarian): > 100 µM
TGI (HCT-15 colon): > 100 µM
TGI (UACC-62 melanoma): 98.1 µM
TGI (MDA-N): > 100 µM
TGI (SF-295 CNS): > 100 µM
TGI (SW-620 colon): > 100 µM
TGI (HCT-116 colon): > 100 µM

Oc1cc(Cc2ccccc2)c(Cc2ccccc2)cc1O
TGI (OVCAR-5 ovarian): > 10 µM
TGI (OVCAR-8 ovarian): > 10 µM
TGI (EKVX NSCLC): > 10 µM
TGI (NCI/ADR-RES ovarian): > 10 µM
TGI (HCT-15 colon): > 10 µM
TGI (UACC-62 melanoma): > 10 µM
TGI (MDA-N): 3.04 µM
TGI (SF-295 CNS): > 10 µM
TGI (SW-620 colon): > 10 µM
TGI (HCT-116 colon): > 10 µM

[N-]=[N+]=Nc1c(Cc2ccccc2)c(Cl)nc2ccccc12
TGI (OVCAR-5 ovarian): > 100 µM
TGI (OVCAR-8 ovarian): 46.5 µM
TGI (EKVX NSCLC): > 100 µM
TGI (NCI/ADR-RES ovarian): > 100 µM
TGI (HCT-15 colon): > 100 µM
TGI (UACC-62 melanoma): 68.8 µM
TGI (MDA-N): > 100 µM
TGI (SF-295 CNS): 62.1 µM
TGI (SW-620 colon): > 100 µM
TGI (HCT-116 colon): 53 µM

CC(C)(C)c1ccc(OCCOc2ccc(C(C)(C)C)cc2N)c(N)c1
TGI (SR leukemia): > 100 µM
TGI (OVCAR-5 ovarian): > 100 µM
TGI (OVCAR-8 ovarian): > 100 µM
TGI (EKVX NSCLC): > 100 µM
TGI (NCI/ADR-RES ovarian): > 100 µM
TGI (HCT-15 colon): > 100 µM
TGI (UACC-62 melanoma): > 100 µM
TGI (SF-295 CNS): > 100 µM
TGI (SW-620 colon): > 100 µM
TGI (HCT-116 colon): > 100 µM

COc1ccc(N2CC(=O)N(C(=O)COc3ccc(OCC(=O)N4C(=O)CN(c5ccc(OC)cc5)C4=S)cc3)C2=S)cc1
TGI (OVCAR-5 ovarian): > 100 µM
TGI (EKVX NSCLC): > 100 µM
TGI (NCI/ADR-RES ovarian): > 100 µM
TGI (HCT-15 colon): > 100 µM
TGI (UACC-62 melanoma): > 100 µM
TGI (MDA-N): > 100 µM
TGI (SF-295 CNS): > 100 µM
TGI (SW-620 colon): > 100 µM
TGI (HCT-116 colon): 63.3 µM

CCN(CCCOc1ccccc1)CCN(CC)CCCOc1ccccc1
TGI (SR leukemia): 26.6 µM
TGI (OVCAR-5 ovarian): 38.9 µM
TGI (OVCAR-8 ovarian): 38 µM
TGI (EKVX NSCLC): 28.9 µM
TGI (NCI/ADR-RES ovarian): 46.8 µM
TGI (HCT-15 colon): 30 µM
TGI (UACC-62 melanoma): 36.7 µM
TGI (SF-295 CNS): 41 µM
TGI (SW-620 colon): 70.5 µM
TGI (HCT-116 colon): > 100 µM

O=C(/C=C(/C=C/c1ccc2[nH]ccc2c1)OB(F)F)/C=C/c1ccc2[nH]ccc2c1
GI50 (SR leukemia): 0.451 µM
TGI (SR leukemia): > 100 µM
GI50 (OVCAR-5 ovarian): 2.75 µM
TGI (OVCAR-5 ovarian): > 100 µM
GI50 (OVCAR-8 ovarian): 2.51 µM
TGI (OVCAR-8 ovarian): > 100 µM
GI50 (EKVX NSCLC): 3.17 µM
TGI (EKVX NSCLC): 86.9 µM
GI50 (NCI/ADR-RES ovarian): 2.7 µM
TGI (NCI/ADR-RES ovarian): > 100 µM
GI50 (HCT-15 colon): 0.653 µM
TGI (HCT-15 colon): 4.43 µM
GI50 (UACC-62 melanoma): 1.85 µM
TGI (UACC-62 melanoma): 5.02 µM
GI50 (SF-295 CNS): 2.28 µM
TGI (SF-295 CNS): > 100 µM

Cc1ccc2c(c1)-c1nc(N)c(C#N)c(-c3ccc(Cl)cc3)c1CCS2(=O)=O
TGI (SR leukemia): 65.6 µM
TGI (OVCAR-8 ovarian): > 100 µM
TGI (NCI/ADR-RES ovarian): > 100 µM
TGI (HCT-15 colon): > 100 µM
TGI (UACC-62 melanoma): > 100 µM
TGI (MDA-N): > 100 µM
TGI (SW-620 colon): > 100 µM
TGI (HCT-116 colon): > 100 µM

Cn1nc2ccc([N+](=O)[O-])c(Cn3nnc4ccccc43)c2n1
TGI (OVCAR-5 ovarian): > 100 µM
TGI (OVCAR-8 ovarian): > 100 µM
TGI (EKVX NSCLC): > 100 µM
TGI (NCI/ADR-RES ovarian): > 100 µM
TGI (HCT-15 colon): > 100 µM
TGI (UACC-62 melanoma): > 100 µM
TGI (MDA-N): > 100 µM
TGI (SF-295 CNS): > 100 µM
TGI (SW-620 colon): > 100 µM
TGI (HCT-116 colon): > 100 µM

Cc1ccc(S(=O)(=O)NC(=O)Nc2nnc(S(N)(=O)=O)s2)cc1
TGI (SR leukemia): > 100 µM
TGI (OVCAR-5 ovarian): > 100 µM
TGI (OVCAR-8 ovarian): > 100 µM
TGI (EKVX NSCLC): > 100 µM
TGI (NCI/ADR-RES ovarian): > 100 µM
TGI (HCT-15 colon): > 100 µM
TGI (UACC-62 melanoma): > 100 µM
TGI (SF-295 CNS): > 100 µM
TGI (SW-620 colon): > 100 µM
TGI (HCT-116 colon): > 100 µM

C[C@@]1(O)C2CC3CC1(c1ccccc1)CC(/C3=N/O)/C2=N\O (stereo partly drawn)
TGI (SR leukemia): > 100 µM
TGI (OVCAR-5 ovarian): > 100 µM
TGI (OVCAR-8 ovarian): > 100 µM
TGI (EKVX NSCLC): > 100 µM
TGI (NCI/ADR-RES ovarian): > 100 µM
TGI (HCT-15 colon): > 100 µM
TGI (UACC-62 melanoma): > 100 µM
TGI (SF-295 CNS): > 100 µM
TGI (SW-620 colon): > 100 µM
TGI (HCT-116 colon): > 100 µM

CN(C)CC(O)c1ccc(Cl)c2ccccc12 (stereo not drawn)
TGI (OVCAR-5 ovarian): > 100 µM
TGI (OVCAR-8 ovarian): > 100 µM
TGI (EKVX NSCLC): > 100 µM
TGI (NCI/ADR-RES ovarian): > 100 µM
TGI (HCT-15 colon): > 100 µM
TGI (UACC-62 melanoma): 34 µM
TGI (MDA-N): > 63.8 µM
TGI (SF-295 CNS): > 63.6 µM
TGI (SW-620 colon): > 100 µM
TGI (HCT-116 colon): > 100 µM
